Data: patent US20250376698A1, “COMPOSITIONS AND METHODS FOR PROMOTING LIVER REGENERATION BY GENE EDITING IN METABOLIC LIVER DISEASE” (priority 2022, published 2025)
Where two headings read alike, the source gives them in different places.

Columns and labels:
GSD Ia puppies = test: Clinical course (hypoglycemia, survival) of GSD Ia puppies treated as neonates; type: in vivo, dog
Excerpt: In this example, puppies with GSD Ia were initially treated with AAV-CRISPR/Cas9 and AAV-cG6PC (Donor) to perform neonatal genome editing at 2 days of age, followed by gene replacement therapy with one or more alternative serotypes of AAV to control symptoms of GSD Ia at the indicated ages for the individual puppies (Puppy 1 shown in green, Puppy 2 in purple in FIG. 4A, see Table 3 below for details). The control group of dogs were those described in Example 2 that received 3 doses of gene replacement therapy during infancy.
As shown in FIG. 4A and described in Table 3 below, two puppies with GSD Ia were treated with genome editing as neonates at a 5:1 ratio of AAV7-cG6PC and AAV7-SaCas9. One puppy was dosed at 4×10^13 vp/kg AAV7-cG6PC and 8×10^12 vp/kg AAV7-SaCas9. The other was dosed with 5×10^13 vp/kg AAV7-cG6PC and […] AAV7-SaCas9. […] Specifically, one puppy (the first described above) received two doses of gene replacement therapy (e.g., AAV10 G6Pase at 3×10^12 vp/kg and AAV8 G6Pase at 1×10^13 vp/kg) at ages 2 and 3 months, respectively. The second puppy received only one gene replacement therapy at 2 months of age (e.g., AAV9 G6Pase at 3×10^13 vp/kg). Table 3 below details the treatment protocols used for both puppies.

G6Pase activity in liver = test: Liver G6Pase activity in GSD Ia dogs; type: in vivo, dog; conditions: 32 months of age, before CRISPR (BC), after gene replacement as neonates
Protocol: G6Pase activity and glycogen levels were analyzed at 4- and 16-months following genome editing at 34 months of age as described in (Koeberl, D. et al., (2006). Early, sustained efficacy of adeno-associated virus vector-mediated gene therapy in glycogen storage disease type Ia. Gene Therapy. 13, 1281-1289). Both assays reflected corrections of the biochemical abnormalities in comparison with untreated affected controls. Normal activity was measured in a group of three unaffected dogs (two carriers and one wildtype; both genotypes are accepted as normal controls in published studies of animals with GSD Ia). Briefly, liver biopsy tissues, obtained as described in Example 2, were flash-frozen and stored at −70° C. Glycogen content was measured by complete digestion of polysaccharide using amyloglucosidase (Sigma Chemical Co., St. Louis, MO). The structure of the polysaccharide was inferred by using phosphorylase free of the debranching enzyme to measure the yield of glucose-1-phosphate. Specific G6Pase activity was measured by using glucose-6-phosphate as substrate after subtraction of nonspecific phosphatase activity as estimated by β-glycerophosphate.

[1] = Protocol: Vector genomes in liver were quantified with qPCR. Briefly, AAV vector genome copy number was measured by quantitative real-time PCR with liver genomic DNA and normalized to β-actin. Plasmid DNA corresponding to 0.01 to 100 copies of canine G6Pase gene (in 500 ng genomic DNA) was used in a standard curve. qPCR was performed on a Lightcycler 480 (Roche Diagnostics, Basel, Switzerland) using SYBR Green mix (Thermo-Fisher Scientific, Waltham, MA) and the following primers: cG6Pc Fwd (5′-[…]-3′, SEQ ID NO: 65), cG6Pc Rev (5′-[…]-3′, SEQ ID NO: 66), hG6PC Fwd (5′-[…]-3′, SEQ ID NO: 67), hG6PC Rev (5′-[…]-3′, SEQ ID NO: 68), saCas9 Fwd (5′-[…]-3′, SEQ ID NO: 69), saCas9 Rev (5′-[…]-3′, SEQ ID NO: 70), cB-actin Fwd (5′-[…]-3′, SEQ ID NO: 71), cB-actin Rev (5′-[…]-3′, SEQ ID NO: 72). Cycling conditions were 95° C. for 5 min, followed by 45 cycles of 95° C. for 10 s, 60° C. for 10 s, and 72° C. for 20 s followed by acquisition.
canine G6PC locus = test: Nested integration PCR in transfected GSD Ia dog fibroblasts; type: cell-based
Protocol: Next, a nested PCR reaction was performed to detect levels of DNA integration in genomic DNA in the transfected fibroblasts. Fibroblast DNA were extracted using the Wizard Genomic DNA Purification Kit (Promega, Madison, WI, USA). The canine G6Pc locus was amplified by Q5 Taq Polymerase (NEB, Ipswich, MA, USA) with the following reagents: 5 μL of Q5 buffer, 5 μL of high GC enhancer solution, 2 μL of 2.5 mM dNTP mix, 1.25 μL of 10 uM primer P1 (5′-[…]-3′, SEQ ID NO: 59)), 1.25 μL of 10 uM primer P4 (5′-[…]-3′, SEQ ID NO: 62)), 9.25 μL of water, 1 μL (100 ng) of genomic DNA, and 0.25 μL of Q5 Taq Polymerase. Cycling conditions were 35 cycles of denaturation at 95° C. for 30 s, annealing at 59° C. for 30 s, extension at 72° C. for 2 min, followed by incubation at 4° C. One microliter of first-round PCR products was used in a nested reaction with the same conditions except primers were P2 (5′-[…]-3′ (SEQ ID NO: 60)) and P3 (5′-[…]-3′ (SEQ ID NO: 61)) and cycling was 30 cycles. Control primers were P5 (5′-[…]-3′ (SEQ ID NO: 63)) and P6 (5′-[…]-3′ (SEQ ID NO: 64)).
Sequencing of the integration PCR product (total sequence: SEQ ID NO: 52) confirmed the donor sequence was inserted in the dog G6PC gene at the exon 1/intron 1 boundary. […]

[2] = dogs treated as adults, months 4 and 16 after gene editing vectors
[3] = puppies treated as neonates, Months 4 and 16

Row | Substance | effect of gene replacement vector on recurrent hypoglycemia (GSD Ia puppies; puppies, given at 2 (and 3) months) | G6Pase activity in liver (G6Pase activity in liver) | vector copy number in liver ([1]; dogs treated as adults, 4 months following gene editing (4M)) [vg/nucleus] | vector genomes in liver (qPCR) [1, 2] | vector genomes in liver (qPCR) [1, 3] | hypoglycemia and survival in the first two months of life (GSD Ia puppies; GSD Ia puppies treated at 2 days of age) | vector copy number in liver, compared with AAV-G6Pase ([1]; dogs treated as adults, 4 months following gene editing) | transgene integration (integration PCR) (canine G6PC locus)
1 | AAV-G6Pase: gene replacement AAV vector delivering human G6Pase cDNA under a human G6Pase minimal promoter, episomal expression (SEQ ID NO: 49; Luo et al. 2011) [reference compound] | reversed their symptoms | 29±8 % of normal | < 0.1 | detected | detected |  |  | 
2 | AAV-cG6PC: AAV donor vector: canine G6Pc cDNA flanked by canine G6PC 5' and 3' homology arms (SEQ ID NO: 43) |  |  |  | detected | detected | efficacious in preventing hypoglycemia and improving survival | Higher copy numbers | no detectable integration events
